{
  "source": "patent US11511054B2",
  "about": "“Use of antistatic materials in the airway for thermal aerosol condensation process” (Alexza Pharmaceuticals, Inc., priority 2015, dated 2022)",
  "key": {"[1]": {"assay": "Net charge measurement of thermal condensation aerosol (aerosol electrometer, Staccato single dose)", "type": "physicochemical", "conditions": "for Total net charge of aerosol particles (in words): standard housing"}, "[2]": {"assay": "Airway deposition and aerosol charges of normal, metallized and Permastat Plus airways (Example 40)", "type": "physicochemical", "conditions": "28.3 LPM", "text": "Purpose • To compare aerosol charge and airway deposition of various airways: normal airway, Metallizedairway(SS*/Cu/Cu/SS), and Permastat Plus airway."}, "[3]": {"assay": "Aerosol charge testing with heat packages, screening foils and funnels (Examples 2-3, 12)", "conditions": "for Aerosol charge relative to Alprazolam: Example 2, aerosol electrometer"}, "[4]": {"assay": "Total net charge vs. airway housing deposition, standard vs anti-static polycarbonate housing", "conditions": "for Net Charge: mean ± SD, N-4", "method": "Alprazolam device versions were tested in this part of the study. The first version (used in Part 1) used an airway housing made of polycarbonate with a surface resistivity of—1×10 18 0/sq. The second version used an airway housing made of a lower resistivity polycarbonate (−1×1011 0/sq) to provide charge dissipation."}, "[5]": {"assay": "Airway deposition and aerosol charges for Permastat, Permastat Plus and standard airway material (Example 38)", "conditions": "1 mg, 28.3 LPM, mean of 4 devices", "from_the_text": "Purpose: • To find out the aerosol charge generated from Permastat and Permastat Plus airways and to compare that to normal airway (control)\nMaterials/Equipment • Standard airway material: makrolon polycarbonate • Permastat: surface resistivity ˜1E11 ohm/sq • Permastat Plus: surface resistivity ˜1E9 ohm/sq • Drug: alprazolam"}, "[6]": {"conditions": "no applied potential to airway housing, mean ± SD"}},
  "data": [
    {"compound": "Cc1nnc2n1-c1ccc(Cl)cc1C(c1ccccc1)=NC2", "note": "[Alprazolam]", "values": [
      {"measurement": "Net Charge", "setting": "[1]; [6]", "value": "−252 ± 59", "unit": "pC/mg"},
      {"measurement": "Total net charge of aerosol particles (in words)", "setting": "[1]", "value": "relatively large net negative charge"},
      {"measurement": "Total net charge of aerosol particles (in words)", "setting": "[1]; listed as ALP", "value": "net negatively charged"},
      {"measurement": "Total net charge of aerosol particles (in words)", "setting": "[1]; listed as alprazolam", "value": "substantial"},
      {"measurement": "Ave Aerosol Charge", "setting": "[2]; Metallized airway, ESD gun 16 kV+", "value": "−111.63", "unit": "pC"},
      {"measurement": "Ave Aerosol Charge", "setting": "[2]; Metallized airway, no ESD gun", "value": "−181.57", "unit": "pC"},
      {"measurement": "Ave Aerosol Charge", "setting": "[2]; Normal airway, ESD gun 16 kV+", "value": "−220.405", "unit": "pC"},
      {"measurement": "Ave Aerosol Charge", "setting": "[2]; Normal airway, no ESD gun", "value": "−220.645", "unit": "pC"},
      {"measurement": "Ave Aerosol Charge", "setting": "[2]; Permastat Plus airway, ESD gun 16 kV+", "value": "−21.895", "unit": "pC"},
      {"measurement": "Ave Aerosol Charge", "setting": "[2]; Permastat Plus airway, no ESD gun", "value": "−16.57", "unit": "pC"},
      {"measurement": "Aerosol charge (in words)", "setting": "[3]; Staccato heat packages with Staticide", "value": "small and negative"},
      {"measurement": "Aerosol charge (in words)", "setting": "[3]; Staccato heat packages without Staticide", "value": "large and negative"},
      {"measurement": "Aerosol charge polarity", "setting": "[3]; partially Staticide-coated airway", "value": "positive polarity"},
      {"measurement": "Net Charge", "setting": "[4]; anti-static polycarbonate airway housing", "value": "−2.2 ± 1"},
      {"measurement": "Total net charge, anti-static housing relative to standard housing (fold less)", "setting": "[4]; anti-static vs standard housing", "value": 100, "unit": "fold"},
      {"measurement": "Net Charge", "setting": "[4]; standard polycarbonate airway housing", "value": "−279 ± 45"},
      {"measurement": "Mean charge/mass", "setting": "[5]; Permastat Plus airway", "value": "−2.2", "unit": "pC/mg"},
      {"measurement": "Mean charge/mass", "setting": "[5]; Permastat airway", "value": "−46.2", "unit": "pC/mg"},
      {"measurement": "Mean charge/mass", "setting": "[5]; control (normal) airway", "value": "−279.2", "unit": "pC/mg"}
    ]},
    {"compound": "CCCCNc1cc(C(=O)O)cc(S(N)(=O)=O)c1Oc1ccccc1", "note": "[Bumetanide]", "values": [
      {"measurement": "Aerosol charge relative to Alprazolam", "setting": "[3]", "value": "about one order of magnitude lower"}
    ]},
    {"compound": "CN1C(=O)CC(=O)N(c2ccccc2)c2cc(Cl)ccc21", "note": "[Clobazam]", "values": [
      {"measurement": "Net Charge", "setting": "[1]; [6]", "value": "0 ± 0", "unit": "pC/mg"}
    ]},
    {"compound": "CN1C(=O)CN=C(c2ccccc2)c2cc(Cl)ccc21", "note": "[Diazepam]", "values": [
      {"measurement": "Net Charge", "setting": "[1]; [6]", "value": "−1 ± 1", "unit": "pC/mg"}
    ]},
    {"compound": "Clc1ccc2c(c1)C(c1ccccc1)=NCc1nncn1-2", "note": "[Estazolam]", "values": [
      {"measurement": "Net Charge", "setting": "[1]; [6]", "value": "−202 ± 3", "unit": "pC/mg"},
      {"measurement": "Total net charge of aerosol particles (in words)", "setting": "[1]", "value": "substantial"}
    ]},
    {"compound": "CN1CCN(CCCN2c3ccccc3Sc3ccc(Cl)cc32)CC1", "note": "[Prochlorperazine]", "values": [
      {"measurement": "Net Charge", "setting": "[1]; [6]", "value": "27 ± 3", "unit": "pC/mg"},
      {"measurement": "Aerosol charge relative to Alprazolam", "setting": "[3]", "value": "about one order of magnitude lower"}
    ]},
    {"compound": "Cc1nnc2n1-c1ccc(Cl)cc1C(c1ccccc1Cl)=NC2", "note": "[Triazolam]", "values": [
      {"measurement": "Net Charge", "setting": "[1]; [6]", "value": "−158 ± 13", "unit": "pC/mg"},
      {"measurement": "Total net charge of aerosol particles (in words)", "setting": "[1]", "value": "substantial"}
    ]},
    {"compound": "CCN(C(C)=O)c1cccc(-c2ccnc3c(C#N)cnn23)c1", "note": "[Zaleplon]", "values": [
      {"measurement": "Net Charge", "setting": "[1]; +16 kV applied to airway housing", "value": "−15 ± 6", "unit": "pC/mg"},
      {"measurement": "Net Charge", "setting": "[1]; [6]", "value": "7 ± 1", "unit": "pC/mg"},
      {"measurement": "Net Charge", "setting": "[1]; −16 kV applied to airway housing", "value": "2 ± 8", "unit": "pC/mg"},
      {"measurement": "Degree of aerosol charge (in words)", "setting": "[3]; Example 3", "value": "low degree of charge"}
    ]}
  ]
}
